In patent US20120101093A1, “SUBSTITUTED IMIDAZO[1,2-A]PYRIDINE DERIVATIVES, PHARMACEUTICAL COMPOSITIONS, AND METHODS OF USE AS BETA-SECRETASE INHIBITORS” (HIGH POINT PHARMACEUTICALS, LLC, priority 2009, published 2012):

Key:
[1] = tested on: Aβ1-40 secreted from HEK293 cells stably expressing wildtype human APP695 protein (HEK-APPwt cells); assay: Aβ Cell Based Assay (Aβ1-40 secretion, ELISA); settings: 6 hours incubation, reduction of Aβ1-40 secretion
Protocol: Aβ Cell Based Assay Procedure
In the following assay, the proteolytic activity of BACE in cells exposed to varying concentrations of a compound of interest is measured by observing the amount of Aβ1-40 secreted from HEK293 cells (Human Embryonic Kidney epithelial cell line) stably expressing wildtype human APP695 protein (HEK-APPwt cells).
HEK-APPwt cells were grown in high glucose DMEM (Dulbecco's Modified Eagles Medium SIGMA Cat.# D5796) supplemented with 25 mM HEPES (4-(2-hydroxyethyl)-1-piperazineethanesulfonic acid) (pH 7.4) (Invitrogen Cat.# 15630-114), 0.1 mM NEAA (Non-essential Amino Acids) (BioWhittaker Cat. #13-114E), 10% fetal bovine serum (SIGMA Cat. #F4135) and 250 μg/mL hygromycin (Invitrogen Cat. #10687-010) in T-225 flasks at 37° C. with 5% CO2 and humidity control.
Test compounds were initially prepared in DMSO and diluted with DMEM media containing 2% FBS (Fetal bovine serum). Ten standard compound solutions were prepared having a range of concentrations. The standard compound solutions were used to determine the EC50 of the test compound. The range of concentrations chosen may depend on the compound's predicted potency.
To prepare the cells for the assay, a flask containing HEK-APPwt cells were trypsinized briefly (1 mL trypsin), and once the cells detached, 4 mL of 10% FBS-DMEM was added to the flask. The detached cells were centrifuged at 900 rpm for 5 min to form a pellet.
The HEK-APPwt cell pellet was re-suspended with 10 mL DMEM media containing 2% FBS. 80 μL of the cell suspension was added to each well of a 96-well cell culture plate to give 100×10^4cells/ml. 10 μL of a standard compound solution was added to each well of the 96-well cell culture plate followed by 10 μL of Alamar blue solution. The cells were incubated at 37° C. in a 5% CO2 incubator for 6 hours.
At the end of the incubation, the plates were removed from incubator, and the supernatant was collected. A≈1-40 concentration in the medium was measured by using a commercial Aβ1-X ELISA kit (IBL, Japan Cat. #27729). Briefly, the ELISA plates were coated with an anti-human AO (N)(82E1) mouse IgG monoclonal antibody. A horseradish peroxidase conjugated anti-human Aβ11-28 mouse IgG monoclonal antibody was used for detection. The cell culture supernatant was diluted with EIA buffer +protease inhibitors (kit buffer containing protease inhibitors (1 mL PI/30 mL buffer)). A 100 μL aliquot of the diluted supernatant was added to each well of the ELISA plate and incubated for 6 hrs at 4° C. The ELISA plate was washed 8 times with phosphate buffered saline (PBS) containing 0.05% Tween 20.
A 100 μL of detection antibody was then added and incubated for 1 hour at 4° C. The plate was washed 8 times with PBS buffer containing 0.05% Tween 20 followed by addition of 100 μL of the chromogen tetramethylbenzidine (TMB). The plate was incubated in the dark at room temperature for about 30 min and a stop solution (1N H2SO4) was added.
The intensity of the color developed was measured at 450 nm. The optical density at 450 nm (OD450) is proportional to the concentration of human Aβ1-40 secreted by the cell. As a reference, N-[N-(3,5-difluorophenacetyl-L-alanyl)]-S-phenylglycine t-butyl ester (DAPT, a γ-secretase inhibitor) was used to indicate 100% inhibition of BACE activity. Thus, the assay measures the ability of a compound of interest to reduce Aβ1-40 secretion. For select compounds, compound potency is reported in Table 3 as the EC50 by calculating the percent inhibition at all concentration levels and the data were fit with non-linear curve fitting algorithm using GraphPad Prism.

BACE-1 enzyme = target: T1, BACE-1 enzyme (Homo sapiens, UniProt P56817); assay: BACE Fluorescence Resonance Energy Transfer (FRET) Assay; type: biochemical; settings: pH 4-4.5, 30 min pre-incubation, about 1.5 hours reaction
T1 construct: purchased R & D Systems 931AS
T1 sequence (P56817 46-457 limits assumed): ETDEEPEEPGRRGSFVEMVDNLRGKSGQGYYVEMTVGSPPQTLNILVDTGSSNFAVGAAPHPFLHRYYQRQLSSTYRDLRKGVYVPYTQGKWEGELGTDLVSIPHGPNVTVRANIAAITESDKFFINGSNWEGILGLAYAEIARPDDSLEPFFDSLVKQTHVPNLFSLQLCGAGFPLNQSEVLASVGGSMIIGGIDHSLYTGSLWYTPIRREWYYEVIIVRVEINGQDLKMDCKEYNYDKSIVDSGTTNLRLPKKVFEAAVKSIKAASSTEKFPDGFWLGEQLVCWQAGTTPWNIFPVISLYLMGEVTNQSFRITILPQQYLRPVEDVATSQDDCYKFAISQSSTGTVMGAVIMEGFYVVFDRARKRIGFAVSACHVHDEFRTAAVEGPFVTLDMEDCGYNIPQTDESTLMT
Procedure, shortened: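 Fluorescence (ex 540, em 585 nm) after ~1.5 h room-temperature cleavage of a quenched rhodamine peptide tracks BACE-1 activity. Enzyme and compound first sit 30 min in pH 4-4.5 acetate buffer with CHAPS, Triton X-100, EDTA, 7.5% DMSO. Values given as IC50 or % inhibition.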

IC50 (BACE-1 enzyme) [µM]	Compound	EC50 ([1]; Homo sapiens, HEK293, 6 h) [µM]	EC50 [1] [µM]
0.46	Cc1cccn2cc(C(=O)Nc3nc4cc(-c5ccc(Cl)cc5)ccc4[nH]3)nc12 [Example 69, 8-Methyl-imidazo[1,2-a]pyridine-2-carboxylic acid [5-(4-chloro-phenyl)-1H-benzoimidazol-2-yl]-amide]	6.97	–
0.26	Cc1cccc2nc(C(=O)Nc3nc4cc(-c5cc(C(F)(F)F)ccc5F)ccc4[nH]3)cn12 [Example 70, 5-Methyl-imidazo[1,2-a]pyridine-2-carboxylic acid [5-(2-fluoro-5-trifluoromethyl-phenyl)-1H-benzoimidazol-2-yl]-amide]	0.21	–
0.36	Cc1cccn2cc(C(=O)Nc3nc4cc(-c5cc(C(F)(F)F)ccc5F)ccc4[nH]3)nc12 [Example 71, 8-Methyl-imidazo[1,2-a]pyridine-2-carboxylic acid [5-(2-fluoro-5-trifluoromethyl-phenyl)-1H-benzoimidazol-2-yl]-amide]	1.56	–
0.62	CCOC(=O)c1cccc(-c2ccc3[nH]c(NC(=O)c4cn5c(C)cccc5n4)nc3c2)c1 [Example 72, 3-{2-[(5-Methyl-imidazo[1,2-a]pyridine-2-carbonyl)-amino]-1H-benzoimidazol-5-yl}-benzoic acid ethyl ester]	1.51	–
0.38	COc1ccc(-c2ccc3[nH]c(NC(=O)c4cn5c(C)cccc5n4)nc3c2)cc1C(F)(F)F [Example 76, 5-Methyl-imidazo[1,2-a]pyridine-2-carboxylic acid [5-(4-methoxy-3-trifluoromethyl-phenyl)-1H-benzoimidazol-2-yl]-amide]	0.89	–
0.61	Cc1cccc2nc(C(=O)Nc3nc4cc(-c5ccc(C(C)(C)C)cc5)ccc4[nH]3)cn12 [Example 77, 5-Methyl-imidazo[1,2-a]pyridine-2-carboxylic acid [5-(4-tert-butyl-phenyl)-1H-benzoimidazol-2-yl]-amide]	0.85	–
0.37	Cc1cccn2cc(C(=O)Nc3nc4cc(-c5ccc(C(C)(C)C)cc5)ccc4[nH]3)nc12 [Example 78, 8-Methyl-imidazo[1,2-a]pyridine-2-carboxylic acid [5-(4-tert-butyl-phenyl)-1H-benzoimidazol-2-yl]-amide]	0.98	–
1.82	CCOc1ccc(-c2ccc3[nH]c(NC(=O)c4cn5c(C)cccc5n4)nc3c2)cc1Cl [Example 79, 5-Methyl-imidazo[1,2-a]pyridine-2-carboxylic acid [5-(3-chloro-4-ethoxy-phenyl)-1H-benzoimidazol-2-yl]-amide]	–	1.54
0.81	CCOc1ccc(-c2ccc3[nH]c(NC(=O)c4cn5c(C)cccc5n4)nc3c2)cc1F [Example 80, 5-Methyl-imidazo[1,2-a]pyridine-2-carboxylic acid [5-(4-ethoxy-3-fluoro-phenyl)-1H-benzoimidazol-2-yl]-amide]	1.32	–
2.21	Cc1cccc2nc(C(=O)Nc3nc4cc(-c5cccc(C#N)c5)ccc4[nH]3)cn12 [Example 82, 5-Methyl-imidazo[1,2-a]pyridine-2-carboxylic acid [5-(3-cyano-phenyl)-1H-benzoimidazol-2-yl]-amide]	1.1	–
1.45	Cc1cccc2nc(C(=O)Nc3nc4cc(C5=CCCCC5)ccc4[nH]3)cn12 [Example 83, 5-Methyl-imidazo[1,2-a]pyridine-2-carboxylic acid (5-cyclohex-1-enyl-1H-benzoimidazol-2-yl)-amide]	4.17	–
1.21	Cc1cccn2cc(C(=O)Nc3nc4cc(-c5cccc(C#N)c5)ccc4[nH]3)nc12 [Example 84, 8-Methyl-imidazo[1,2-a]pyridine-2-carboxylic acid [5-(3-cyano-phenyl)-1H-benzoimidazol-2-yl]-amide]	2.9	–
0.22	Cc1cccc2nc(C(=O)Nc3nc4cc(-c5cc(Cl)ccc5Cl)ccc4[nH]3)cn12 [Example 87, 5-Methyl-imidazo[1,2-a]pyridine-2-carboxylic acid [5-(2,5-dichloro-phenyl)-1H-benzoimidazol-2-yl]-amide]	0.73	–
